The record followed here is ChEMBL document CHEMBL1145987, “Structural determinants of selective thyromimetics” (J Med Chem, 2003).

SMILES strings stand for the structures.

Assay [1] concerns the target T1, Thyroid hormone receptor beta (Homo sapiens, UniProt P10828).
T1 sequence (P10828 whole entry): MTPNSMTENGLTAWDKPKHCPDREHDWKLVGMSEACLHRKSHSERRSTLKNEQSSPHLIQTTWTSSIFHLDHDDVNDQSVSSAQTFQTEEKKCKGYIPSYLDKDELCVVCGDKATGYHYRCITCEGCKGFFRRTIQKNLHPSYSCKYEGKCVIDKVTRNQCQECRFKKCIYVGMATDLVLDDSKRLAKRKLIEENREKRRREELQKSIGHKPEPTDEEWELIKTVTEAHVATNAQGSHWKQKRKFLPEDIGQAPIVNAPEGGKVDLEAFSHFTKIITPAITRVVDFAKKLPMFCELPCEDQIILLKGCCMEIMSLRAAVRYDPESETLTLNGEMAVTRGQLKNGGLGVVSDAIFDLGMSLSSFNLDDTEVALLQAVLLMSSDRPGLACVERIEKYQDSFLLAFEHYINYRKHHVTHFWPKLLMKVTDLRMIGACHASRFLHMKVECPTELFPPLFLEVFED
Description: Binding affinity of compound was determined against thyroid hormone receptor beta 1.

Assay [2] deals with T2, Thyroid hormone receptor alpha (Homo sapiens, UniProt P10827).
T2 sequence (P10827 whole entry): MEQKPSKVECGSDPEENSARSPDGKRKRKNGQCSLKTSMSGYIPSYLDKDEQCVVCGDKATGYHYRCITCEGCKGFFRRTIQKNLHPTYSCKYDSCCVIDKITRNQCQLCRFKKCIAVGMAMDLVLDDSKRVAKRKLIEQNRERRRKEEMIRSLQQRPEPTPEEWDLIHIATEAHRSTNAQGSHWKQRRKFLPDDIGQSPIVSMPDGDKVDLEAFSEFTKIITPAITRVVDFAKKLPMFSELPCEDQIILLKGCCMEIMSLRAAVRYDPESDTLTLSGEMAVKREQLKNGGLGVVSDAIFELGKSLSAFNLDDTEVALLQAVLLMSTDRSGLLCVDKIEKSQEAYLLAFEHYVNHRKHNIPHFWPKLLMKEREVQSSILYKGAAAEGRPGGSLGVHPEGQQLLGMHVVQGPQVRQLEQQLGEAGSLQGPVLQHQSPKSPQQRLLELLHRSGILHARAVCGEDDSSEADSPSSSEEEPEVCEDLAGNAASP
Description: Binding affinity of compound was determined against Thyroid hormone receptor alpha1.

Take `Cc1cc(C[C@H](N)C(=O)O)cc(C)c1Oc1ccc(O)c(C(C)C)c1`: the Kd (in general, the constant that tells how readily two partners part at equilibrium) in assay [1] came to 6.2 nM; in assay [2], 8.5 nM.

On to `Cc1cc(CCC(=O)O)cc(C)c1Cc1ccc(O)c(C(C)C)c1`, for which the Kd in assay [1] turned out to be 0.22 nM; in assay [2] it was 0.69 nM.

Consider `Cc1cc(OCC(=O)O)cc(C)c1Oc1ccc(O)c(C(C)C)c1`, for which the Kd came to 0.36 nM in assay [1] and 2.4 nM in assay [2].

With `Cc1cc(C[C@H](N)C(=O)O)cc(C)c1Cc1ccc(O)c(C(C)C)c1`, the dissociation constant Kd in assay [1] amounted to 1.26 nM; in assay [2], 2.02 nM.
